According to patent US9096565B2, “Inhibitors of histone deacetylase” (MethylGene Inc., priority 2007, dated 2015):

Biological target: one or more of HDAC-4, HDAC-5, HDAC-6, HDAC-7, HDAC-8, HDAC-9, HDAC-10 and HDAC-11
Test: Inhibition of histone deacetylase enzymatic activity (summary statement over isoforms)
Assay type: biochemical
Conditions: Table 3, selected examples; HDAC isoform not given
Summary of the method: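 HDAC enzyme mix with compound was preincubated 5 min at room temperature. Reaction was started at 37 °C with Boc-Lys(trifluoroacetyl)-AMC substrate and run 20-30 min. It was stopped with trypsin (1 mg/mL) plus a known HDAC inhibitor to release the fluorogenic AMC.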

Row | Compound | IC50
1 | O=C(NO)C(c1ccccc1)c1cccc(OC2CCCC2)c1 (stereo not shown) [Compound 3-29, 2-(3-(cyclopentyloxy)phenyl)-N-hydroxy-2-phenylacetamide] | 1000 to 15000 nM
2 | CC(C)CCOc1cccc(C(C(=O)NO)c2ccccc2)c1 (stereo not shown) [Compound 3-30, N-hydroxy-2-(3-(isopentyloxy)phenyl)-2-phenylacetamide] | 1000 to 15000 nM
3 | CCC(CC)COc1cccc(C(C(=O)NO)c2ccccc2)c1 (stereo not shown) [Compound 3-31, 2-(3-(2-ethylbutoxy)phenyl)-N-hydroxy-2-phenylacetamide] | 1000 to 15000 nM
4 | O=C(NO)C(c1ccccc1)c1cccc(OCC2CCCCC2)c1 (stereo not shown) [Compound 3-32, 2-(3-(cyclohexylmethoxy)phenyl)-N-hydroxy-2-phenylacetamide] | 1000 to 15000 nM
5 | Cc1cccc(COc2cccc(C(C(=O)NO)c3ccccc3)c2)c1 (stereo not shown) [Compound 3-33, N-hydroxy-2-(3-(3-methylbenzyloxy)phenyl)-2-phenylacetamide] | 1000 to 15000 nM
6 | O=C(NO)C(c1ccccc1)c1cccc(OCc2ccccc2F)c1 (stereo not shown) [Compound 3-34, 2-(3-(2-fluorobenzyloxy)phenyl)-N-hydroxy-2-phenylacetamide] | < 1000 nM
7 | Cc1cc(C)cc(COc2cccc(C(C(=O)NO)c3ccccc3)c2)c1 (stereo not shown) [Compound 3-35, 2-(3-(3,5-dimethylbenzyloxy)phenyl)-N-hydroxy-2-phenylacetamide] | < 1000 nM
8 | O=C(NO)C(c1ccccc1)c1cccc(OCCCc2ccccc2)c1 (stereo not shown) [Compound 3-36, N-hydroxy-2-phenyl-2-(3-(3-phenylpropoxy)phenyl)acetamide] | < 1000 nM
9 | O=C(NO)C(c1ccccc1)c1cccc(OCc2cccc(C(F)(F)F)c2)c1 (stereo not shown) [Compound 3-42, N-hydroxy-2-phenyl-2-(3-(3-(trifluoromethyl)benzyloxy)phenyl)acetamide] | < 1000 nM
10 | COc1ccc(C(C(=O)NO)c2ccccc2)cc1 (stereo not shown) [Compound 3-43, N-hydroxy-2-(4-methoxyphenyl)-2-phenylacetamide] | < 1000 nM
11 | CCOc1ccc(C(C(=O)NO)c2ccccc2)cc1 (stereo not shown) [Compound 3-44, 2-(4-ethoxyphenyl)-N-hydroxy-2-phenylacetamide] | < 1000 nM
12 | C#CCOc1ccc(C(C(=O)NO)c2ccccc2)cc1 (stereo not shown) [Compound 3-45, N-hydroxy-2-phenyl-2-(4-(prop-2-ynyloxy)phenyl)acetamide] | < 1000 nM
13 | C=CCOc1ccc(C(C(=O)NO)c2ccccc2)cc1 (stereo not shown) [Compound 3-46, 2-(4-(allyloxy)phenyl)-N-hydroxy-2-phenylacetamide] | < 1000 nM
14 | CC(C)Oc1ccc(C(C(=O)NO)c2ccccc2)cc1 (stereo not shown) [Compound 3-47, N-hydroxy-2-(4-isopropoxyphenyl)-2-phenylacetamide] | < 1000 nM
15 | C=CCCOc1ccc(C(C(=O)NO)c2ccccc2)cc1 (stereo not shown) [Compound 3-49, 2-(4-(but-3-enyloxy)phenyl)-N-hydroxy-2-phenylacetamide] | < 1000 nM
16 | COCCOc1ccc(C(C(=O)NO)c2ccccc2)cc1 (stereo not shown) [Compound 3-50, N-hydroxy-2-(4-(2-methoxyethoxy)phenyl)-2-phenylacetamide] | < 1000 nM
17 | Cc1noc(C)c1COc1ccc(C(C(=O)NO)c2ccccc2)cc1 (stereo not shown) [Compound 3-51, 2-(4-((3,5-dimethylisoxazol-4-yl)methoxy)phenyl)-N-hydroxy-2-phenylacetamide] | < 1000 nM
18 | CC(C)=CCOc1ccc(C(C(=O)NO)c2ccccc2)cc1 (stereo not shown) [Compound 3-52, N-hydroxy-2-(4-(3-methylbut-2-enyloxy)phenyl)-2-phenylacetamide] | < 1000 nM
19 | O=C(NO)C(c1ccccc1)c1ccc(OC2CCCC2)cc1 (stereo not shown) [Compound 3-53, 2-(4-(cyclopentyloxy)phenyl)-N-hydroxy-2-phenylacetamide] | < 1000 nM
20 | CC(C)CCOc1ccc(C(C(=O)NO)c2ccccc2)cc1 (stereo not shown) [Compound 3-54, N-hydroxy-2-(4-(isopentyloxy)phenyl)-2-phenylacetamide] | 1000 to 15000 nM
21 | CCC(CC)COc1ccc(C(C(=O)NO)c2ccccc2)cc1 (stereo not shown) [Compound 3-55, 2-(4-(2-ethylbutoxy)phenyl)-N-hydroxy-2-phenylacetamide] | < 1000 nM
22 | CC(C)CCCOc1ccc(C(C(=O)NO)c2ccccc2)cc1 (stereo not shown) [Compound 3-56, N-hydroxy-2-(4-(4-methylpentyloxy)phenyl)-2-phenylacetamide] | < 1000 nM
23 | O=C(NO)C(c1ccccc1)c1ccc(OCC2CCCCC2)cc1 (stereo not shown) [Compound 3-57, 2-(4-(cyclohexylmethoxy)phenyl)-N-hydroxy-2-phenylacetamide] | < 1000 nM
24 | Cc1cccc(COc2ccc(C(C(=O)NO)c3ccccc3)cc2)c1 (stereo not shown) [Compound 3-58, N-hydroxy-2-(4-(3-methylbenzyloxy)phenyl)-2-phenylacetamide] | < 1000 nM
25 | CC(Oc1ccc(C(C(=O)NO)c2ccccc2)cc1)c1ccccc1 (stereo not shown) [Compound 3-59, N-hydroxy-2-phenyl-2-(4-(1-phenylethoxy)phenyl)acetamide] | < 1000 nM

The next lines start with the values.

Row | IC50 | Compound
26 | < 1000 nM | O=C(NO)C(c1ccccc1)c1ccc(OCc2ccccc2F)cc1 (stereo not shown) [Compound 3-60, 2-(4-(2-fluorobenzyloxy)phenyl)-N-hydroxy-2-phenylacetamide]
27 | < 1000 nM | N#Cc1ccccc1COc1ccc(C(C(=O)NO)c2ccccc2)cc1 (stereo not shown) [Compound 3-61, 2-(4-(2-cyanobenzyloxy)phenyl)-N-hydroxy-2-phenylacetamide]
28 | < 1000 nM | Cc1cc(C)cc(COc2ccc(C(C(=O)NO)c3ccccc3)cc2)c1 (stereo not shown) [Compound 3-62, 2-(4-(3,5-dimethylbenzyloxy)phenyl)-N-hydroxy-2-phenylacetamide]
29 | < 1000 nM | O=C(NO)C(c1ccccc1)c1ccc(OCCOc2ccccc2)cc1 (stereo not shown) [Compound 3-64, N-hydroxy-2-(4-(2-phenoxyethoxy)phenyl)-2-phenylacetamide]
30 | < 1000 nM | O=C(NO)C(c1ccccc1)c1ccc(OCc2ccccc2Cl)cc1 (stereo not shown) [Compound 3-65, 2-(4-(2-chlorobenzyloxy)phenyl)-N-hydroxy-2-phenylacetamide]
31 | < 1000 nM | O=C(NO)C(c1ccccc1)c1ccc(OCc2cccc(Cl)c2)cc1 (stereo not shown) [Compound 3-66, 2-(4-(3-chlorobenzyloxy)phenyl)-N-hydroxy-2-phenylacetamide]
32 | < 1000 nM | O=C(NO)C(c1ccccc1)c1ccc(OCc2ccc(F)cc2F)cc1 (stereo not shown) [Compound 3-67, 2-(4-(2,4-difluorobenzyloxy)phenyl)-N-hydroxy-2-phenylacetamide]
33 | < 1000 nM | O=C(NO)C(c1ccccc1)c1ccc(OCCOCc2ccccc2)cc1 (stereo not shown) [Compound 3-68, 2-(4-(2-(benzyloxy)ethoxy)phenyl)-N-hydroxy-2-phenylacetamide]
34 | < 1000 nM | O=C(NO)C(c1ccccc1)c1ccc(OCCOc2ccc(F)cc2)cc1 (stereo not shown) [Compound 3-69, 2-(4-(2-(4-fluorophenoxy)ethoxy)phenyl)-N-hydroxy-2-phenylacetamide]
35 | < 1000 nM | CC(C)(C)c1ccc(COc2ccc(C(C(=O)NO)c3ccccc3)cc2)cc1 (stereo not shown) [Compound 3-70, 2-(4-(4-tert-butylbenzyloxy)phenyl)-N-hydroxy-2-phenylacetamide]
36 | < 1000 nM | O=C(NO)C(c1ccccc1)c1ccc(OCc2cccc(C(F)(F)F)c2)cc1 (stereo not shown) [Compound 3-71, N-hydroxy-2-phenyl-2-(4-(3-(trifluoromethyl)benzyloxy)phenyl)acetamide]
37 | 1000 to 15000 nM | CC(C)Nc1cccc(C(C(=O)NO)c2ccccc2)c1 (stereo not shown) [Compound 3-72, N-hydroxy-2-(3-(isopropylamino)phenyl)-2-phenylacetamide]
38 | 1000 to 15000 nM | O=C(NO)C(c1ccccc1)c1cccc(Nc2ccccc2)c1 (stereo not shown) [Compound 3-73, N-hydroxy-2-phenyl-2-(3-(phenylamino)phenyl)acetamide]
39 | < 1000 nM | O=C(NO)C(c1ccccc1)c1cccc(NCc2ccccn2)c1 (stereo not shown) [Compound 3-74, N-hydroxy-2-phenyl-2-(3-(pyridin-2-ylmethylamino)phenyl)acetamide]
40 | < 1000 nM | CC(=O)N1CCN(c2cccc(C(C(=O)NO)c3ccccc3)c2)CC1 (stereo not shown) [Compound 3-75, 2-(3-(4-acetylpiperazin-1-yl)phenyl)-N-hydroxy-2-phenylacetamide]
41 | < 1000 nM | O=C(NO)C(c1ccccc1)c1cccc(N2CCC(N3CCCC3)CC2)c1 (stereo not shown) [Compound 3-76, N-hydroxy-2-phenyl-2-(3-(4-(pyrrolidin-1-yl)piperidin-1-yl)phenyl)acetamide]
42 | 1000 to 15000 nM | O=C(NO)C(c1ccccc1)c1cccc(N2CCN(c3ccc(F)cc3)CC2)c1 (stereo not shown) [Compound 3-78, 2-(3-(4-(4-fluorophenyl)piperazin-1-yl)phenyl)-N-hydroxy-2-phenylacetamide]
43 | < 1000 nM | CC(C)Nc1ccc(C(C(=O)NO)c2ccccc2)cc1 (stereo not shown) [Compound 3-79, N-hydroxy-2-(4-(isopropylamino)phenyl)-2-phenylacetamide]
44 | < 1000 nM | O=C(NO)C(c1ccccc1)c1ccc(Nc2ccccc2)cc1 (stereo not shown) [Compound 3-80, N-hydroxy-2-phenyl-2-(4-(phenylamino)phenyl)acetamide]
45 | < 1000 nM | O=C(NO)C(c1ccccc1)c1ccc(NCc2ccccn2)cc1 (stereo not shown) [Compound 3-81, N-hydroxy-2-phenyl-2-(4-(pyridin-2-ylmethylamino)phenyl)acetamide]
46 | < 1000 nM | CC(=O)N1CCN(c2ccc(C(C(=O)NO)c3ccccc3)cc2)CC1 (stereo not shown) [Compound 3-82, 2-(4-(4-acetylpiperazin-1-yl)phenyl)-N-hydroxy-2-phenylacetamide]
47 | < 1000 nM | O=C(NO)C(c1ccccc1)c1ccc(N2CCC(N3CCCC3)CC2)cc1 (stereo not shown) [Compound 3-83, N-hydroxy-2-phenyl-2-(4-(4-(pyrrolidin-1-yl)piperidin-1-yl)phenyl)acetamide]
48 | < 1000 nM | O=C(NO)C(c1ccccc1)c1ccc(N2CCN(c3ccc(F)cc3)CC2)cc1 (stereo not shown) [Compound 3-84, 2-(4-(4-(4-fluorophenyl)piperazin-1-yl)phenyl)-N-hydroxy-2-phenylacetamide]
49 | < 1000 nM | O=C(NO)C(c1ccccc1)c1ccc(OC/C=C/c2ccccc2)cc1 (stereo not shown) [Compound 3-85, (E)-2-(4-(cinnamyloxy)phenyl)-N-hydroxy-2-phenylacetamide]
